Measured values: patent publication US20260184710A1, “CASITAS B-LINEAGE LYMPHOMA PROTOONCOGENE B (CBL-B) DEGRADING COMPOUNDS AND ASSOCIATED METHODS OF USE” (Arvinas Operations, Inc., priority 2022, published 2026)

Tests used:
Cbl-b [1] = target: T1, Cbl-b (Homo sapiens, UniProt Q13191); test: Cbl-b Degradation Method B (Nano-Glo HiBiT lytic detection); type: cell-based; conditions: Cbl-b-HiBit KI Jurkat Cells, incubated at least 6-24 hours; for DC50: half maximal degradation, read-out: Cbl-b Degredation Method B IC50; for Dmax: read-out: Cbl-b Degredation Method B Dmax (%)
T1 construct: Cbl-b-HiBit KI Jurkat Cells were purchased from Promega; host or cells: Cbl-b-HiBiT knock-in Jurkat cells
Procedure, shortened: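 An 11-point, 3-fold compound dilution was applied for 6-24 hours to Jurkat cells carrying HiBiT-tagged endogenous Cbl-b. Lytic HiBiT luminescence quantified residual protein. Outputs are DC50 and Dmax relative to DMSO control.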

Cbl-b [2] = target: T1, Cbl-b; test: Cbl-b Degradation Method A (FACS, anti-Cbl-b antibody staining); type: cell-based; conditions: Cbl-b-HiBit KI Jurkat Cells, incubated at least 20 hours; for DC50: half maximal degradation, read-out: Cbl-b Degredation Method A IC50; for Dmax: Jurkat, maximum degradation observed, read-out: Cbl-b Degredation Method A Dmax (%)
Procedure, shortened: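 Readout is flow cytometry of fixed, permeabilized cells immunostained for Cbl-b (primary 1:200, AF488 secondary). Cells were Cbl-b-HiBit knock-in Jurkat, exposed to compound ≥20 h at 37 °C; half-maximal degradation concentration (DC50) and maximal degradation (Dmax) calculated relative to control.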

T1 sequence (Q13191 whole entry): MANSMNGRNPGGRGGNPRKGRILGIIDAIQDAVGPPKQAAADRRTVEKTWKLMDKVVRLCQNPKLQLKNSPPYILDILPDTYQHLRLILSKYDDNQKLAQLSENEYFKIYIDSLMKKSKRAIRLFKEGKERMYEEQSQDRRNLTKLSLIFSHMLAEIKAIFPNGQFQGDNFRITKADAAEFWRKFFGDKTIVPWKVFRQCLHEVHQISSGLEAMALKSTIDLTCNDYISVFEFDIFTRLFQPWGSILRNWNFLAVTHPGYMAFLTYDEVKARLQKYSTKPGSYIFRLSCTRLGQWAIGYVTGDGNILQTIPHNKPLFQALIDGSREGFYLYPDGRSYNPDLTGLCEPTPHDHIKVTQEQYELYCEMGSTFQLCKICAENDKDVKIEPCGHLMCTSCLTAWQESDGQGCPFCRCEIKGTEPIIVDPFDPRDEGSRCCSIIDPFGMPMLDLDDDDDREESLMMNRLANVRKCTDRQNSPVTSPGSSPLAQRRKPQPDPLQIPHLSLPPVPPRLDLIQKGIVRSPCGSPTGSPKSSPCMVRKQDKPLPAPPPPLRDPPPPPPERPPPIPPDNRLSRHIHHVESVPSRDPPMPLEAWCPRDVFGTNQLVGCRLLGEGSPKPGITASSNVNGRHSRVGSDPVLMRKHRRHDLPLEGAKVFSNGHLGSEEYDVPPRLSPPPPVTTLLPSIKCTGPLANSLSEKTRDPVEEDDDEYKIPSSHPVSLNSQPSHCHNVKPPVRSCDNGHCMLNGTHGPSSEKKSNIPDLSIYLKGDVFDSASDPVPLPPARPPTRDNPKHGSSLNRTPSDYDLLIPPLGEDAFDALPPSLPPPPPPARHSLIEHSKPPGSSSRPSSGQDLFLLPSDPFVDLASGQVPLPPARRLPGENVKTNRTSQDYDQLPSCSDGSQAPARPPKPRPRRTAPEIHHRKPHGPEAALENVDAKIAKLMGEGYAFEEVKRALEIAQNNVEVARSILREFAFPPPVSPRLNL

Compound	DC50 (Cbl-b [1])	Cbl-b Degredation Method B Dmax (%) (Cbl-b [1]; maximum degradation observed)	DC50 (Cbl-b [2])	Dmax (Cbl-b [2])	Dmax (Cbl-b [1]; maximum degradation observed)
Cn1cnnc1C[C@]1(c2cccc(N3Cc4c(cc(CN5CCN(C[C@H]6CC[C@H](OC7CCN(c8ccc9c(n8)n(C)c(=O)n9C8CCC(=O)NC8=O)CC7)CC6)CC5(C)C)cc4C(F)(F)F)C3=O)c2)C[C@H](C#N)C1 (stereo partly shown) [Example 300, (1r,3r)-3-(3-{6-[(2,2-dimethyl-4-{[(1r,4r)-4-({1-[1-(2,6-dioxopiperidin-3-yl)-3-methyl-2-oxo-1H,2H,3H-imidazo[4,5-b]pyridin-5-yl]piperidin-4-yl}oxy)cyclohexyl]methyl}piperazin-1-yl)methyl]-1-oxo-4-(trifluoromethyl)-2,3-dihydro-1H-isoindol-2-yl}phenyl)-3-[(4-methyl-4H-1,2,4-triazol-3-yl)methyl]cyclobutane-1-carbonitrile]	< 5 nM	C (C ≤ 35)	50 to 500 nM	35 to 70%	–
Cn1cnnc1[C@]1(c2cccc(N3Cc4c(cc(CN5CCC[C@H](CN6CCN(C[C@H]7CC[C@@H](OC8CCN(c9ccc%10c(c9F)CN(C9CCC(=O)NC9=O)C%10=O)CC8)CC7)CC6)C5)cc4C(F)(F)F)C3=O)c2)C[C@@H](C)C1 (stereo partly drawn) [Example 157, 3-[4-fluoro-1-oxo-5-(4-{[(1r,4r)-4-[(4-{[(3S)-1-[(3-oxo-2-{3-[(1r,3s)-3-methyl-1-(4-methyl-4H-1,2,4-triazol-3-yl)cyclobutyl]phenyl}-7-(trifluoromethyl)-2,3-dihydro-1H-isoindol-5-yl)methyl]piperidin-3-yl]methyl}piperazin-1-yl)methyl]cyclohexyl]oxy}piperidin-1-yl)-2,3-dihydro-1H-isoindol-2-yl]piperidine-2,6-dione]	< 5 nM	–	< 5 nM	> 70%	35 to 70%
Cn1cnnc1CC1(c2cccc(N3Cc4c(cc(N5CC6(CCN(CC7CCN(c8ccc9c(n8)CN(C8CCC(=O)NC8=O)C9=O)CC7)CC6)C5)cc4C(F)(F)F)C3=O)c2)COC1 (stereo not shown) [Example 131, 3-{2-[4-({2-[2-(3-{3-[(4-methyl-4H-1,2,4-triazol-3-yl)methyl]oxetan-3-yl}phenyl)-3-oxo-7-(trifluoromethyl)-2,3-dihydro-1H-isoindol-5-yl]-2,7-diazaspiro[3.5]nonan-7-yl}methyl)piperidin-1-yl]-5-oxo-5H,6H,7H-pyrrolo[3,4-b]pyridin-6-yl}piperidine-2,6-dione]	< 5 nM	–	5 to 50 nM	35 to 70%	35 to 70%
Cn1cnnc1C[C@]1(c2cccc(N3Cc4c(cc(N5CC6(CCN(CC7CCN(c8ccc9c(c8)C(=O)N(C8CCC(=O)NC8=O)C9=O)CC7)CC6)C5)cc4C(F)(F)F)C3=O)c2)C[C@@H](C#N)C1 (stereo partly shown) [Example 137, (1s,3s)-3-(3-{6-[7-({1-[2-(2,6-dioxopiperidin-3-yl)-1,3-dioxo-2,3-dihydro-1H-isoindol-5-yl]piperidin-4-yl}methyl)-2,7-diazaspiro[3.5]nonan-2-yl]-1-oxo-4-(trifluoromethyl)-2,3-dihydro-1H-isoindol-2-yl}phenyl)-3-[(4-methyl-4H-1,2,4-triazol-3-yl)methyl]cyclobutane-1-carbonitrile]	5 to 50 nM	–	5 to 50 nM	35 to 70%	35 to 70%
Cn1cnnc1CC1(c2cccc(N3Cc4c(cc(CN5CCN(C[C@H]6CC[C@H](OC7CCN(c8ccc9c(n8)CN(C8CCC(=O)NC8=O)C9=O)CC7)CC6)CC5)cc4C(F)(F)F)C3=O)c2)COC1 (stereo partly shown) [Example 112, 3-[5-oxo-2-(4-{[(1r,4r)-4-[(4-{[2-(3-{3-[(4-methyl-4H-1,2,4-triazol-3-yl)methyl]oxetan-3-yl}phenyl)-3-oxo-7-(trifluoromethyl)-2,3-dihydro-1H-isoindol-5-yl]methyl}piperazin-1-yl)methyl]cyclohexyl]oxy}piperidin-1-yl)-5H,6H,7H-pyrrolo[3,4-b]pyridin-6-yl]piperidine-2,6-dione]	< 5 nM	–	5 to 50 nM	35 to 70%	35 to 70%
Cn1cnnc1CC1(c2cccc(N3Cc4c(cc(CN5CC[C@H](CN6CCN(C[C@H]7CC[C@H](OC8CCN(c9ccc%10c(c9F)CN(C9CCC(=O)NC9=O)C%10=O)CC8)CC7)CC6)C5)cc4C(F)(F)F)C3=O)c2)COC1 (stereo partly drawn) [Example 10, 3-[4-fluoro-1-oxo-5-(4-{[(1r, 4r)-4-[(4-{[(3S)-1-{[2-(3-{3-[(4-methyl-4H-1,2,4-triazol-3-yl)methyl]oxetan-3-yl}phenyl)-3-oxo-7-(trifluoromethyl)-2,3-dihydro-1H-isoindol-5-yl]methyl}pyrrolidin-3-yl]methyl}piperazin-1-yl)methyl]cyclohexyl]oxy}piperidin-1-yl)-2,3-dihydro-1H-isoindol-2-yl]piperidine-2,6-dione]	< 5 nM	–	< 5 nM	> 70%	> 70%
Cn1cnnc1CC1(c2cccc(N3Cc4c(cc(CN5CCC(COCCOCCOc6ccc7c(c6)C(=O)N(C6CCC(=O)NC6=O)C7=O)CC5)cc4C(F)(F)F)C3=O)c2)COC1 (stereo not shown) [Example 89, 2-(2,6-dioxopiperidin-3-yl)-5-(2-{2-[(1-{[2-(3-{3-[(4-methyl-4H-1,2,4-triazol-3-yl)methyl]oxetan-3-yl}phenyl)-3-oxo-7-(trifluoromethyl)-2,3-dihydro-1H-isoindol-5-yl]methyl}piperidin-4-yl)methoxy]ethoxy}ethoxy)-2,3-dihydro-1H-isoindole-1,3-dione]	> 500 nM	–	> 500 nM	–	–
Cn1cnnc1CC1(c2cccc(N3Cc4c(cc(CN5CCC(CN6CCN(c7cccc8c7C(=O)N(C7CCC(=O)NC7=O)C8=O)CC6)CC5)cc4C(F)(F)F)C3=O)c2)COC1 (stereo not shown) [Example 88, 2-(2,6-dioxopiperidin-3-yl)-4-(4-((1-((2-(3-(3-((4-methyl-4H-1,2,4-triazol-3-yl)methyl)oxetan-3-yl)phenyl)-3-oxo-7-(trifluoromethyl)isoindolin-5-yl)methyl)piperidin-4-yl)methyl)piperazin-1-yl)isoindoline-1,3-dione]	> 500 nM	–	> 500 nM	–	–
C[C@@H]1C[C@@H](CN2CCN(c3ccc4c(c3)C(=O)N(C3CCC(=O)NC3=O)C4=O)CC2)CN(Cc2cc3c(c(C(F)(F)F)c2)CN(c2cccc(C4(Cc5nncn5C)COC4)c2)C3=O)C1 (stereo partly drawn) [Example 86, 2-(2,6-dioxopiperidin-3-yl)-5-(4-{[(3R,5R)-5-methyl-1-{[2-(3-{3-[(4-methyl-4H-1,2,4-triazol-3-yl)methyl]oxetan-3-yl}phenyl)-3-oxo-7-(trifluoromethyl)-2,3-dihydro-1H-isoindol-5-yl]methyl}piperidin-3-yl]methyl}piperazin-1-yl)-2,3-dihydro-1H-isoindole-1,3-dione]	> 500 nM	–	> 500 nM	–	–
CC1CN(C[C@H]2CC[C@H](OC3CCN(c4ccc5c(n4)C(C)N(C4CCC(=O)NC4=O)C5=O)CC3)CC2)CCN1Cc1cc2c(c(C(F)(F)F)c1)CN(c1cccc(C3(Cc4nncn4C)CCC3)c1)C2=O (stereo partly shown) [Example 209, 3-[7-methyl-5-oxo-2-(4-{[(1r,4r)-4-[(3-methyl-4-{[2-(3-{1-[(4-methyl-4H-1,2,4-triazol-3-yl)methyl]cyclobutyl}phenyl)-3-oxo-7-(trifluoromethyl)-2,3-dihydro-1H-isoindol-5-yl]methyl}piperazin-1-yl)methyl]cyclohexyl]oxy}piperidin-1-yl)-5H,6H,7H-pyrrolo[3,4-b]pyridin-6-yl]piperidine-2,6-dione]	< 5 nM	–	5 to 50 nM	35 to 70%	35 to 70%
